The target in one test is T1, PA-IIL lectin (Pseudomonas aeruginosa, UniProt Q9HYN5).
T1 construct: Dr. Wimmerova, Masaryk University, Brno, Czech Republic
Briefly: Assay for PA-IIL antagonist activity (plate-coated PA-IIL, fucose-PAA-biotin/streptavidin-HRP competition). It counts as binding. The conditions noted are these: for inhibition of the PA-IIL lectin: FIG. 6. As to the method:
Wells of a microtiter plate (plate 1) are coated with PA-IIL (Dr. Wimmerova, Masaryk University, Brno, Czech Republic) by incubation for 2 hrs at 37° C. The wells are then blocked for 2 hrs by the addition of 1% bovine serum albumin (BSA) diluted in TBS-Ca (50 mM TrisHCl, 150 mM NaCl, 2 mM CaCl2 pH 7.4) mixed 1:1 v/v with Stabilcoat (Surmodics, Eden Prairie, Minn.). In a second low-binding round-bottom microtiter plate (plate 2), test antagonists are serial diluted in 1% BSA in TBS-Ca/Stabilcoat (60 μl/well). […] Plate 1 is then washed with TBS-Ca and 100 μl/well are transferred from plate 2 to plate 1. After incubation at room temperature for 2 hrs, plate 1 is washed and 100 μl of TMB reagent (KPL Labs, Gaithersburg, Md.) is added to each well. After incubation for 5 minutes at room temperature, the reaction is stopped by adding 100 μl/well of 1M H3PO4 and the absorbance of light at 450 nm is determined by a microtiter plate reader.

For another test, the target named is T2, PA-IL lectin (Pseudomonas aeruginosa, UniProt Q05097).
T2 construct: purchased Sigma-Aldrich, St. Louis, Mo
T2 sequence (Q05097 whole entry): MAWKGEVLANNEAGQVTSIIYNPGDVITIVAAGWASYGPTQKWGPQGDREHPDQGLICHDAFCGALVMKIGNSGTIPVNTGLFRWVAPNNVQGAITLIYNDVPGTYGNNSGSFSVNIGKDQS
The test can be described thus: Assay for PA-IL antagonist activity (plate-coated PA-IL, α-galactose-PAA-biotin/streptavidin-HRP competition). To be noted: for inhibition of PA-IL lectin: FIG. 5. The format is binding. As to the method:
Wells of a microtiter plate (plate 1) are coated with PA-IL (Sigma-Aldrich, St. Louis, Mo.) by incubation for 2 hrs at 37° C. The wells are then blocked for 2 hrs by the addition of 1% bovine serum albumin (BSA) diluted in TBS-Ca (50 mM TrisHCl, 150 mM NaCl, 2 mM CaCl2 pH 7.4) mixed 1:1 v/v with Stabilcoat (Surmodics, Eden Prairie, Minn.). In a second low-binding round-bottom microtiter plate (plate 2), test antagonists are serial diluted in 1% BSA in TBS-Ca/Stabilcoat (60 μl/well). Preformed conjugates of α-galactose-PAA-biotin (GlycoTech Corp, Gaithersburg, Md.) mixed with streptavidin-HRP (KPL Labs, Gaithersburg, Md.) are added to each well of plate 2 (60 μl/well of 2 μg/ml). Plate 1 is then washed with TBS-Ca and 100 μl/well are transferred from plate 2 to plate 1. After incubation at room temperature for 2 hrs, plate 1 is washed and 100 μl of TMB reagent (KPL Labs, Gaithersburg, Md.) is added to each well. After incubation for 5 minutes at room temperature, the reaction is stopped by adding 100 μl/well of 1M H3PO4 and the absorbance of light at 450 nm is determined by a microtiter plate reader.

In test [1] the target is PA-IIL binding to human epithelial cells (Pseudomonas aeruginosa, UniProt Q9HYN5). Briefly: Inhibition of PA-IIL lectin binding to human buccal epithelial cells (flow cytometry). The format is cell-based. To be noted: FIG. 9A-9F, biotinylated PA-IIL, fluorescein-labeled streptavidin, FACS. The procedure:
FIG. 9A-9F illustrates the inhibition of PA-IIL binding to human epithelial cells. Human buccal epithelial cells are incubated with biotinylated PA-IIL lectin followed by detection of bound lectin with fluorescein-labeled streptavidin. Fluorescently labeled cells are quantified by fluorescent-activated cell sorting (FIG. 9B).
Obtain sample of buccal cells by scraping inside of cheek and collecting in 2 mis PBS. Spin cells at 400 g for 7 minutes to generate cell pellet. Discard supernatant. Resuspend in cold TBS-Ca (50 mM TrisHCl, 150 mM NaCl, 2 mM CaCl2 pH 7.4) to cell concentration of 10^6 cells/ml. Aliquot 0.1 ml to each tube. Add biotinylated PA-I or PA-II to tubes (5μ/well of 1.0 mg/ml lectin). Add inhibitors to tubes (5 μl at desired concentration). Incubate on ice for 30 minutes. Wash cells once by adding 400 μl of cold TBS-Ca to each tube and spinning at 400 g for 7 minutes. Discard supernatant. Resuspend cells in 100 μl of cold TBS-Ca. Add streptavidin-FITC (2 μl/tube of 1 mg/ml, KPL Labs, Gaithersburg, Md.). Incubate 30 minutes on ice. Wash cells once by adding 400 μl of cold TBS-Ca to each tube and spinning at 400 g for 7 minutes. Discard supernatant. Resuspend cells in 500 μl of cold TBS-Ca. Analyze in flow cytometer.
In general terms: In flow cytometry, cells or beads pass a laser one at a time.

Molecules are shown by their SMILES.

T1 sequence (Q9HYN5 entry or part of it): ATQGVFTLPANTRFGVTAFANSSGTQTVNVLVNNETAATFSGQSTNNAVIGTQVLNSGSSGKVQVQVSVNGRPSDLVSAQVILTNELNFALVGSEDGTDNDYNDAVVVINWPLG
PA-IIL binding to human epithelial cells, sequence (Q9HYN5 entry or part of it): as above

`O=C[C@H](O)[C@@H](O)[C@@H](O)[C@H](O)CO` [galactose]: the “inhibition of the PA-IIL lectin” value at PA-IIL lectin (qualitative) was “not”. On PA-IIL lectin (FIG. 8, qualitative), the “inhibition of PA-IIL in IC50 determination” value is “inactive”. The “inhibition of PA-IL lectin” value on PA-IL lectin (qualitative) is on record as “inhibited”. Also, the “inhibition of PA-IIL binding to human epithelial cells” value in test [1] is given as “no effect”.
Regarding `OC[C@H]1O[C@H](OCC2O[C@@H](O)[C@H](O)[C@@H](O)[C@@H]2O)[C@H](O)[C@@H](O)[C@H]1O` (stereo partly drawn) [Melibiose, Melibiose (Galα1-6Gal)], on PA-IL lectin (qualitative), the “inhibition of PA-IL lectin” value was “inhibited”.
With `C[C@H](O)[C@@H](O)[C@@H](O)[C@H](O)C=O` [fucose], the “inhibition of PA-IL lectin” value on PA-IL lectin (qualitative) is recorded as “not”. Also, on PA-IL lectin (FIG. 7, qualitative), the “inhibition of PA-IL in IC50 determination” value was “inactive”.
As to `CC1OC(OC2C(CO)OCCC2OC2OC(CO)C(O)C(OC3OC(CO)C(O)C(O)C3O)C2O)C(O)C(O)C1O` (stereo not drawn) [Glycomimetic 1], on PA-IIL lectin (qualitative), the “inhibition of the PA-IIL lectin” value is “inhibited”. The “inhibition of PA-IIL relative to fucose (from IC50 determination)” value at PA-IIL lectin (FIG. 8, times better than fucose) is listed as 4 to 5 times. Moreover, the “inhibition of PA-IL lectin” value at PA-IL lectin (qualitative) is on record as “inhibited”. For the same molecule, the “inhibition of PA-IL relative to galactose (from IC50 determination)” value at PA-IL lectin (FIG. 7, times better than galactose) is on record as 4 to 5 times. Further, the “inhibition of PA-IIL binding to human epithelial cells” value in test [1] was “inhibits binding”.

The values above are taken from patent US8258290B2, “Glycomimetic inhibitors of the PA-IL lectin, PA-IIL lectin or both the lectins from pseudomonas” (priority 2005, dated 2012).
